Experimental findings from ChEMBL document CHEMBL5352478, “Novel pyridine-containing histone deacetylase inhibitors strongly arrest proliferation, induce apoptosis and modulate miRNAs in cancer cells” (Eur J Med Chem, 2023) are described below.

Assay [1] relates to U-937. Put plainly: Induction of cell cycle arrest in human U-937 cells assessed as accumulation of cells in G1 phase at 5 uM for 48 hrs by PI staining based flow cytometric analysis. The class given is functional.
The test system of assay [2] is K562. The assay is described as follows: cells. The assay is classed as functional, cell-based. The conditions noted are these: Homo sapiens, K562, 72 h.
The next assay deals with A549. Put plainly: cells. The assay is classed as functional, cell-based. The conditions noted are these: Homo sapiens, A549, 72 h.
Another assay concerns HCT-116. The assay is described as follows: cells. The assay is classed as functional, cell-based. The following applies: Homo sapiens, HCT-116, 72 h.
Assay [3] has as its system U-937. Put plainly: Induction of cell cycle arrest in human U-937 cells assessed as accumulation of cells in G2/M phase at 1 uM for 24 hrs by PI staining based flow cytometric analysis. The class given is functional. (In general: A flow cytometer gives signals particle by particle.)
For assay [4], the system named is U-937. The assay is described as follows: Induction of cell cycle arrest in human U-937 cells assessed as accumulation of cells in pre-G1 phase at 5 uM for 24 hrs by PI staining based flow cytometric analysis. The class given is functional.
Assay [5] has as its target T1, Protein deacetylase HDAC6 (Homo sapiens, UniProt Q9UBN7).
T1 sequence (Q9UBN7 whole entry): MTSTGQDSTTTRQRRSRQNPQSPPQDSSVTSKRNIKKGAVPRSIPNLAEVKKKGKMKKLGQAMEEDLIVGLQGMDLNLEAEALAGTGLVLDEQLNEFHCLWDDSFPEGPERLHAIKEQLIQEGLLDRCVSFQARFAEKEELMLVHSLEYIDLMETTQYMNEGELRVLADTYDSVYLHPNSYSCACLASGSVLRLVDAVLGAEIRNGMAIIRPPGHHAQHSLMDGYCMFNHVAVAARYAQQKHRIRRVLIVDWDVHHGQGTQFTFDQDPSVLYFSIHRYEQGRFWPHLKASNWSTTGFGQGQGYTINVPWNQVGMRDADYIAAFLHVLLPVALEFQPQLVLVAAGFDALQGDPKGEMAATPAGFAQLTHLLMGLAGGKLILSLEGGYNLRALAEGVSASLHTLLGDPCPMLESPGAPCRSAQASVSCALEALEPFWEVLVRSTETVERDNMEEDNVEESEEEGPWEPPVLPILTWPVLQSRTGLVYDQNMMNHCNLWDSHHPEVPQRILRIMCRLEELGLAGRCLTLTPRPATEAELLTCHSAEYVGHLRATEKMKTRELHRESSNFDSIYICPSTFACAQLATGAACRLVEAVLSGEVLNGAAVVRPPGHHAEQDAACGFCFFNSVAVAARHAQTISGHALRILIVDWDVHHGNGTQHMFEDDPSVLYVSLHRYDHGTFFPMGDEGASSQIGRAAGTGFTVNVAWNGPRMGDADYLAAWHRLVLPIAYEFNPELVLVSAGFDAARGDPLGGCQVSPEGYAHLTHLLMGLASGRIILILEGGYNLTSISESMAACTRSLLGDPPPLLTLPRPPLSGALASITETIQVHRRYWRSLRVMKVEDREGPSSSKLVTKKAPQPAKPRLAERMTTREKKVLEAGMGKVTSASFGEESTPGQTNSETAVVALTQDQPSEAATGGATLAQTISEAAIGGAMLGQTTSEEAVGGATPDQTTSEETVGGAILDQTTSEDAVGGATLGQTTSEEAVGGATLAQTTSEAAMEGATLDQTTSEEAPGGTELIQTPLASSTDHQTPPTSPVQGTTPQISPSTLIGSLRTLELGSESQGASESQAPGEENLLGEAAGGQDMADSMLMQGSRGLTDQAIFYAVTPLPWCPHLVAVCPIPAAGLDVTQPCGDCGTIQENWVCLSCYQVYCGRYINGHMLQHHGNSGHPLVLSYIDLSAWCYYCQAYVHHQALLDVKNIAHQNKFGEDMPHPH
The following applies: read-out: IC50.

For assay [6], the system named is U-937. Put plainly: Induction of cell cycle arrest in human U-937 cells assessed as cell death at 5 uM for 48 hrs by PI staining based flow cytometric analysis. The class given is functional.
In assay [7] the test system is K562. The assay is described as follows: Potency index, ratio of SAHA IC50 to test compound IC50 for antiproliferative activity against human K562 cell. The class given is functional.
For assay [8], the system named is U-937. The assay is described as follows: Induction of cell cycle arrest in human U-937 cells assessed as accumulation of cells in pre-G1 phase at 1 uM for 48 hrs by PI staining based flow cytometric analysis. The assay is classed as functional.
Assay [9] has as its system U-937. Put plainly: Induction of cell cycle arrest in human U-937 cells assessed as accumulation of cells in pre-G1 phase at 5 uM for 48 hrs by PI staining based flow cytometric analysis. The assay is classed as functional.
Assay [10] deals with U-937. Put plainly: Induction of cell cycle arrest in human U-937 cells assessed as accumulation of cells in G1 phase at 1 to 5 uM for 48 hrs by PI staining based flow cytometric analysis. The assay is classed as functional. The conditions noted are these: dose 1-5 µM.

A word on the IC50: it is the point on the concentration scale where inhibition reaches its midpoint. For `Nc1ccccc1NC(=O)c1ccc(CNC(=O)OCc2cccnc2)cc1` [ENTINOSTAT], in the assay on U-937 [1], the Activity was determined as 70%. Also, the IC50 in the assay on K562 [2] turned out to be 570 nM; with A549, 2250 nM; with HCT-116, 1060 nM.

Take `O=C(/C=C/c1ccc(NC(=O)C(Cc2ccccc2)c2ccccc2)cn1)NO` (stereo not given): the Activity with U-937 [3] is reported as 60%; in the assay with U-937 [4] it was 10%; in the assay with U-937 [6], 76%; with U-937 [8], 40%; in the assay on U-937 [9], 40%; in the assay on U-937 [10], 70%. Further, the IC50 stood at 11 nM in [5], 40 nM in the assay with K562 [2], 220 nM in the assay with A549 and 70 nM with HCT-116. In the assay on K562 [7], the “Ratio IC50” value is on record as 10.
